Broadly, the IC50 is the concentration that gives 50% inhibition. As usually defined, the EC50 is the concentration that produces a half-maximal response.

A value given as a limit tells only on which side of the number the result lay.

Results on 18 compounds are retold here after ChEMBL document CHEMBL5233253, “β-Lactams as promising anticancer agents: Molecular hybrids, structure activity relationships and potential targets” (Eur J Med Chem, 2020).

One experiment deals with MCF7. The experiment is described as follows: Cytotoxicity against human MCF7 cells assessed as inhibition of cell growth by MTT assay. In kind it is functional, cell-based. A general note: Formazan colour is commonly taken as a measure of viable cells.
A further experiment has as its system A549. The experiment can be described thus: Cytotoxicity against human A549 cells assessed as inhibition of cell growth by MTT assay. Type of experiment: functional, cell-based.
Another experiment has as its system CCRF-CEM. The experiment can be described thus: Cytotoxicity against human CEM cells assessed reduction in cell viability. In kind it is functional, cell-based.
Another experiment relates to L1210. The experiment can be described thus: Cytotoxicity against mouse L1210 cells assessed as reduction in cell viability. Type of experiment: functional, cell-based.
Another experiment has as its target Tubulin. The experiment is described as follows: Inhibition of tubulin (unknown origin) polymerization incubated for 5 mins by spectrophotometer analysis. In kind it is protein-complex assay, Homo sapiens.
The next experiment has as its system HT-1080. The experiment can be described thus: Cytotoxicity against human HT-1080 cells assessed reduction in cell viability. Type of experiment: functional, cell-based.
The nature of experiment [1]: Inhibition of Klebsiella pneumoniae beta Metallo-beta-lactamase IMP-28.
The subject of a further experiment is HEK293. The experiment is described as follows: Antiproliferative activity against human HEK293 cells assessed as inhibition of cell growth measured after 48 hrs by MTT assay. Conditions: HEK293, 48 h. In kind it is functional, cell-based.
Experiment [2] in a line: Anti-keratosis activity in vitamin-A-deficient hamster trachea in presence of beta-lactamase. Type of experiment: functional, tissue-based, Cricetulus griseus.
Another experiment concerns the target Heat shock protein HSP90 (Homo sapiens, UniProt P07900+P08238). The experiment can be described thus: Inhibition of HSP90 (unknown origin). Type of experiment: protein assay.

As for `CC(O)C1C(=O)NC1OC(=O)/C=C/c1ccc(N)cc1` (centres undefined), the IC50 in the experiment with MCF7 and with A549 was 1590 nM in each case.
In the case of `CC(O)C1C(=O)NC1OC(=O)/C=C/c1ccc(Br)cc1` (centres undefined), the IC50 in the experiment on MCF7 and in the experiment on A549 was 1590 nM throughout.
For the compound `Cc1cn(CCCN2C(=O)C(OCc3ccccc3)C2c2ccc(Br)cc2)c(=O)n(CCCN2C(=O)C(OCc3ccccc3)C2c2ccc(Br)cc2)c1=O` (centres undefined), the figures for the half-inhibitory concentration (IC50) in the experiment with CCRF-CEM and with L1210 were 3.4 µM and 4.1 µM, respectively.
In the case of `COc1cc(N2C(=O)[C@H](c3cccs3)[C@H]2c2cccc(N=[N+]=[N-])c2)cc(OC)c1OC`, at Tubulin, the IC50 was found to be 2260 nM.
Consider `CC(O)C1C(=O)NC1OC(=O)/C=C/c1ccc(Cl)cc1` (centres undefined), for which the IC50 in the experiment on MCF7 and with A549 was 1590 nM in each case.
On to `C=C(C)[C@H](C(=O)OC(c1ccccc1)c1ccccc1)N1C(=O)/C(=C/C(=O)OC(C)(C)C)[C@H]1SSc1nc2ccccc2s1`, for which half-maximal inhibition in the experiment on HT-1080 (IC50) was put at 400 nM.
With `COc1ccc(/C=C/C(=O)OC2NC(=O)C2C(C)O)cc1` (centres undefined), the IC50 with MCF7 and in the experiment with A549 was 1590 nM throughout.
`O=C(OCc1ccccc1)c1cccc(CC(=O)N2C(=O)[C@H](Cc3ccc(O)cc3)[C@@H]2C(=O)OCc2ccccc2)c1`: the concentration for half-maximal inhibition (IC50) in experiment [1] turned out to be 340 nM.
The compound `O=C(O)c1ccc(COC(=O)[C@H]2[C@@H](Cc3ccccc3)C(=O)N2C(=O)Cc2cccc(C(=O)OCc3ccccc3)c2)cc1` gave an IC50 in [1] of 340 nM.
In the case of `C[C@H](CCC(=O)NCc1cn([C@@H]2C(=O)N(CCN3C(=O)[C@@H](n4cc(CNC(=O)CC[C@@H](C)[C@H]5CC[C@H]6[C@@H]7CC[C@@H]8C[C@H](O)CC[C@]8(C)[C@H]7C[C@H](O)[C@]56C)nn4)[C@H]3c3ccccc3)[C@@H]2c2ccccc2)nn1)[C@H]1CC[C@H]2[C@@H]3CC[C@@H]4C[C@H](O)CC[C@]4(C)[C@H]3C[C@H](O)[C@]12C`, the IC50 with HEK293 was found to be 500 µM.
Regarding `CC1=C(/C=C/C(C)=C/C=C/C(C)=C/C(=O)OCC2=C(C(=O)O)N3C(=O)[C@@H](NC(=O)COc4ccccc4)[C@H]3[S+]([O-])C2)C(C)(C)CCC1` (some centres undefined), in experiment [2], the EC50 came out at 0.0391 nM.
For `C[C@H](CCC(=O)OCc1cn([C@@H]2C(=O)N(CCN3C(=O)[C@@H](n4cc(COC(=O)CC[C@@H](C)[C@H]5CC[C@H]6[C@@H]7CC[C@@H]8C[C@H](O)CC[C@]8(C)[C@H]7C[C@H](O)[C@]56C)nn4)[C@H]3c3ccccc3)[C@@H]2c2ccccc2)nn1)[C@H]1CC[C@H]2[C@@H]3CC[C@@H]4C[C@H](O)CC[C@]4(C)[C@H]3C[C@H](O)[C@]12C`, in the experiment with HEK293, the IC50 is above 1000 µM.
`O=C(OCc1ccccc1)[C@H]1[C@@H](Cc2ccc(O)cc2)C(=O)N1C(=O)c1ccccc1` yielded an IC50 in experiment [1] of 340 nM.
For the compound `C[C@H](CCC(=O)OCc1cn([C@@H]2C(=O)N(CCN3C(=O)[C@@H](n4cc(COC(=O)CC[C@@H](C)[C@H]5CC[C@H]6[C@@H]7[C@H](O)C[C@@H]8C[C@H](O)CC[C@]8(C)[C@H]7C[C@H](O)[C@]56C)nn4)[C@H]3c3ccccc3)[C@@H]2c2ccccc2)nn1)[C@H]1CC[C@H]2[C@@H]3CC[C@@H]4C[C@H](O)CC[C@]4(C)[C@H]3C[C@H](O)[C@]12C`, the IC50 in the experiment on HEK293 stood at 10 µM.
In experiment [1], `O=C(OCc1ccccc1)c1cccc(CC(=O)N2C(=O)[C@H](Cc3ccccc3)[C@@H]2C(=O)OCc2ccccc2)c1` registered an IC50 of 340 nM.
As to `C[C@H](CCC(=O)NCc1cn([C@@H]2C(=O)N(CCN3C(=O)[C@@H](n4cc(CNC(=O)CC[C@@H](C)[C@H]5CC[C@H]6[C@@H]7[C@H](O)C[C@@H]8C[C@H](O)CC[C@]8(C)[C@H]7C[C@H](O)[C@]56C)nn4)[C@H]3c3ccccc3)[C@@H]2c2ccccc2)nn1)[C@H]1CC[C@H]2[C@@H]3CC[C@@H]4C[C@H](O)CC[C@]4(C)[C@H]3C[C@H](O)[C@]12C`, the IC50 with HEK293 was 100 µM.
With `CC(O)C1C(=O)NC1OC(=O)/C=C/c1ccccc1` (centres undefined), the IC50 with MCF7 and with A549 was 1590 nM each time.
In turn, `CCc1cc([C@@H]2CC(=O)N2c2ccc3c(c2)OCCO3)c(O)cc1O` registered an IC50 at Heat shock protein HSP90 of 5.6 µM.
